According to the kinase profiling compilation of Christmann-Franck et al. (2016):
Where “and” joins values, the source holds several entries; their conditions need not be identical. Identical values can stand only once.

Experiments:
Assay in all cases: radiometric filter-binding kinase assay, Kinase HotSpot
Settings in all cases: compound 0.5 µM; ATP 10 µM
CSNK2A1 (human) = CSNK2A1 (human) (UniProt P68400)
FGFR2 (human) = FGFR2 (human) (UniProt P21802)
HIPK1 (human) = HIPK1 (human) (UniProt Q86Z02)
PLK1 (human) = PLK1 (human) (UniProt P53350)
SRC (human) = SRC (human) (UniProt P12931)
IRAK4 (human) = IRAK4 (human) (UniProt Q9NWZ3)
TLK2 (human) = TLK2 (human) (UniProt Q86UE8)
GSK3B (human) = GSK3B (human) (UniProt P49841)
MARK2 (human) = MARK2 (human) (UniProt Q7KZI7)
PNCK (human) = PNCK (human) (UniProt Q6P2M8)
MAP3K8 (human) = MAP3K8 (human) (UniProt P41279)
DAPK3 (human) = DAPK3 (human) (UniProt O43293)
EPHB4 (human) = EPHB4 (human) (UniProt P54760)
CSK (human) = CSK (human) (UniProt P41240)
RPS6KA4 KD2 (human) = RPS6KA4 KD2 (human) (UniProt O75676)
STK10 (human) = STK10 (human) (UniProt O94804)
PRKG1 (human) = PRKG1 (human) (UniProt Q13976)
FGFR4 (human) = FGFR4 (human) (UniProt P22455)
MST1R (human) = MST1R (human) (UniProt Q04912)
DYRK2 (human) = DYRK2 (human) (UniProt Q92630)
FER (human) = FER (human) (UniProt P16591)
BMX (human) = BMX (human) (UniProt P51813)
RPS6KA2 KD1 KD2 (human) = RPS6KA2 KD1 KD2 (human) (UniProt Q15349)
GRK4 (human) = GRK4 (human) (UniProt P32298)
STK3 (human) = STK3 (human) (UniProt Q13188)
ULK3 (human) = ULK3 (human) (UniProt Q6PHR2)
MLTK (human) = MLTK (human) (UniProt Q9NYL2)
LYN (human) = LYN (human) (UniProt P07948)
BTK (human) = BTK (human) (UniProt Q06187)
GRK7 (human) = GRK7 (human) (UniProt Q8WTQ7)
SGK2 (human) = SGK2 (human) (UniProt Q9HBY8)
CDK6 CCND3 (human) = CDK6 CCND3 (human) (UniProt P30281+Q00534)
MAPK12 (human) = MAPK12 (human) (UniProt P53778)
PKN1 (human) = PKN1 (human) (UniProt Q16512)
TYRO3 (human) = TYRO3 (human) (UniProt Q06418)
JAK3 JH1 JH2 (human) = JAK3 JH1 JH2 (human) (UniProt P52333)
EPHA5 (human) = EPHA5 (human) (UniProt P54756)
DMPK (human) = DMPK (human) (UniProt Q09013)
MYLK (human) = MYLK (human) (UniProt Q15746)
NEK3 (human) = NEK3 (human) (UniProt P51956)
AURKA (human) = AURKA (human) (UniProt O14965)
CHEK2 (human) = CHEK2 (human) (UniProt O96017)

Chain of FER (human) (P16591 whole entry, looked up): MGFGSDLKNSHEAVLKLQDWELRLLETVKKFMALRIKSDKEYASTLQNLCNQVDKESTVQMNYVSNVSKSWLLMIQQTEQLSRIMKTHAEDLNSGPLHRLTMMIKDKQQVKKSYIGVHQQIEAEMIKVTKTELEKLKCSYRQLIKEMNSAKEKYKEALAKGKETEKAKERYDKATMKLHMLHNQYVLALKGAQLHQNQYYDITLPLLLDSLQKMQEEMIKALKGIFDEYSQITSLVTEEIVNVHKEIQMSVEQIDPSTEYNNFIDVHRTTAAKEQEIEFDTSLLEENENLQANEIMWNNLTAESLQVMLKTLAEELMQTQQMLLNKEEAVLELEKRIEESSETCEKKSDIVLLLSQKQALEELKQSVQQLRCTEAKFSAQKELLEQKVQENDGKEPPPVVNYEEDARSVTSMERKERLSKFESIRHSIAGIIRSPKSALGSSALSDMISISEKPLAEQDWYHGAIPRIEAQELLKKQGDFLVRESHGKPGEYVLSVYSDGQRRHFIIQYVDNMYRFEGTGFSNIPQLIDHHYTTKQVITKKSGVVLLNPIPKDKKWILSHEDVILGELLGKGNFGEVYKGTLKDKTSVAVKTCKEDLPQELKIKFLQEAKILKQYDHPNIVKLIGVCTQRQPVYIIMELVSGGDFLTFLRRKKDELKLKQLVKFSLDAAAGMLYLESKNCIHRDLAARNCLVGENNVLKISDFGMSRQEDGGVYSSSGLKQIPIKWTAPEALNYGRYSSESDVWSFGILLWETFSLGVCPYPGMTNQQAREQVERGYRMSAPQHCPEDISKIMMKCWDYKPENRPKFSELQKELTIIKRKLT
Chain of TYRO3 (human) (Q06418 whole entry, looked up): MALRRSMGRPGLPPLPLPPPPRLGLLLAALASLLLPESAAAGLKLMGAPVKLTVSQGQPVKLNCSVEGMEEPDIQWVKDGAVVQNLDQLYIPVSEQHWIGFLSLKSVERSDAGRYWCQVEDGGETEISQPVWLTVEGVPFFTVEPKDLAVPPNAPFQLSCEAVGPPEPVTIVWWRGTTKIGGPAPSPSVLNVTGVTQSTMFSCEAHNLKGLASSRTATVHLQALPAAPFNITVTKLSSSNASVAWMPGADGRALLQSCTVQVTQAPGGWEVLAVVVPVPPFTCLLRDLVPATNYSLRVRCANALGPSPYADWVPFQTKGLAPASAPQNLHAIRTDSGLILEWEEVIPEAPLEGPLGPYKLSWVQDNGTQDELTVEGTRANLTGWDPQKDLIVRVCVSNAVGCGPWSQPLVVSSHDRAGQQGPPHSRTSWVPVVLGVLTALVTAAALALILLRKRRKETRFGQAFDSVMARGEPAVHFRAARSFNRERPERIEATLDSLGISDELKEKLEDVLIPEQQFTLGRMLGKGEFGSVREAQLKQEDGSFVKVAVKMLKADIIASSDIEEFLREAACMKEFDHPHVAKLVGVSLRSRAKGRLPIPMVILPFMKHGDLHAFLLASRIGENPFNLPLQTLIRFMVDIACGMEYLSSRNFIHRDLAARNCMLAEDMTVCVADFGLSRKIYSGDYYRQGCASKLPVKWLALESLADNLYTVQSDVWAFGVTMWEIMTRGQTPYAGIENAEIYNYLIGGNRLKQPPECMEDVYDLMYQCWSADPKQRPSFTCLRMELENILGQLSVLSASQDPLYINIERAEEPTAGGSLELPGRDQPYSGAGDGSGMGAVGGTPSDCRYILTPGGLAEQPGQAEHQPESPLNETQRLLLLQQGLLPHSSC
Chain of TLK2 (human) (Q86UE8 whole entry, looked up): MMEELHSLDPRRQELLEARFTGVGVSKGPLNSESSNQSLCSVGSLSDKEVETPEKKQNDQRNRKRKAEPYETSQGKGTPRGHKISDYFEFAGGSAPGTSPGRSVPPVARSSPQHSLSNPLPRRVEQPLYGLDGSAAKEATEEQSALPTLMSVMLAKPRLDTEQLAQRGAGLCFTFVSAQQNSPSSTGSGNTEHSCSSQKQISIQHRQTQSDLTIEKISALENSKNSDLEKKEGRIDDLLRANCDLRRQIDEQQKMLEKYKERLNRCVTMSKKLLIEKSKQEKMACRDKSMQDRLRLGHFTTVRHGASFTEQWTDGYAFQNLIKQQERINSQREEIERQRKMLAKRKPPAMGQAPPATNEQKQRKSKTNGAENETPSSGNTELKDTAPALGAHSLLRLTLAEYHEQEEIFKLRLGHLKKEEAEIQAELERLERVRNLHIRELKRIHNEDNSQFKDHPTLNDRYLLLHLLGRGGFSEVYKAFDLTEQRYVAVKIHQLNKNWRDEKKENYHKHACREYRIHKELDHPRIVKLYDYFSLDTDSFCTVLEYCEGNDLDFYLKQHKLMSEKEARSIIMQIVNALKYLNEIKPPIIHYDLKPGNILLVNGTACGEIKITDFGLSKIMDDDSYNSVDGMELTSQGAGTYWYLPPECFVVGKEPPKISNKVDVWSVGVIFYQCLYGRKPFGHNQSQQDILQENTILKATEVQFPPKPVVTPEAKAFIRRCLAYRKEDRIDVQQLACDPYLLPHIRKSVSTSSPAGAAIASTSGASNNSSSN
Chain of MAP3K8 (human) (P41279 whole entry, looked up): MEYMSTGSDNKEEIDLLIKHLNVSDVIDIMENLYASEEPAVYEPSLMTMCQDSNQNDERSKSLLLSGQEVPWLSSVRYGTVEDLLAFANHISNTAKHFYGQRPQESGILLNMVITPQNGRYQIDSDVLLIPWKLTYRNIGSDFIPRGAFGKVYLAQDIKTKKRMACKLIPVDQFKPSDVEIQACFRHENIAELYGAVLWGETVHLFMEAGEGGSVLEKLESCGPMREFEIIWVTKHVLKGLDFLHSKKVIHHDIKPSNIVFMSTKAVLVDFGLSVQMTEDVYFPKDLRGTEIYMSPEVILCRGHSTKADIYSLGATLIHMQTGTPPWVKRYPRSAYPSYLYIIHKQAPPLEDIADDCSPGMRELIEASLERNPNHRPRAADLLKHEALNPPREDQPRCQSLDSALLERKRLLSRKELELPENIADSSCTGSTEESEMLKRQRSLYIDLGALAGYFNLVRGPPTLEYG
Chain of ULK3 (human) (Q6PHR2 whole entry, looked up): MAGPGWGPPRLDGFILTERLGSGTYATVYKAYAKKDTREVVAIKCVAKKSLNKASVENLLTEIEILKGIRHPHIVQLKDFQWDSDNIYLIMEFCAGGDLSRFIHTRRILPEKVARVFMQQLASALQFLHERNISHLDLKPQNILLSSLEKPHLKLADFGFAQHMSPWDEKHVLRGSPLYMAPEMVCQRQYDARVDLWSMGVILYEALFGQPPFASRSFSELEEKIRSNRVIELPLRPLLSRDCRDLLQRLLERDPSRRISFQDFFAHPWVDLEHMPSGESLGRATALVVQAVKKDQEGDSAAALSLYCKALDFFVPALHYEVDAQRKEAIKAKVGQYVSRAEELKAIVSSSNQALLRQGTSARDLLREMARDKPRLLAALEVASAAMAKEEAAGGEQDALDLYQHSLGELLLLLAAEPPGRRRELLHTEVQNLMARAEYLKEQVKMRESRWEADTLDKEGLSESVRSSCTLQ
Chain of RPS6KA2 KD1 KD2 (human) (Q15349 whole entry, looked up): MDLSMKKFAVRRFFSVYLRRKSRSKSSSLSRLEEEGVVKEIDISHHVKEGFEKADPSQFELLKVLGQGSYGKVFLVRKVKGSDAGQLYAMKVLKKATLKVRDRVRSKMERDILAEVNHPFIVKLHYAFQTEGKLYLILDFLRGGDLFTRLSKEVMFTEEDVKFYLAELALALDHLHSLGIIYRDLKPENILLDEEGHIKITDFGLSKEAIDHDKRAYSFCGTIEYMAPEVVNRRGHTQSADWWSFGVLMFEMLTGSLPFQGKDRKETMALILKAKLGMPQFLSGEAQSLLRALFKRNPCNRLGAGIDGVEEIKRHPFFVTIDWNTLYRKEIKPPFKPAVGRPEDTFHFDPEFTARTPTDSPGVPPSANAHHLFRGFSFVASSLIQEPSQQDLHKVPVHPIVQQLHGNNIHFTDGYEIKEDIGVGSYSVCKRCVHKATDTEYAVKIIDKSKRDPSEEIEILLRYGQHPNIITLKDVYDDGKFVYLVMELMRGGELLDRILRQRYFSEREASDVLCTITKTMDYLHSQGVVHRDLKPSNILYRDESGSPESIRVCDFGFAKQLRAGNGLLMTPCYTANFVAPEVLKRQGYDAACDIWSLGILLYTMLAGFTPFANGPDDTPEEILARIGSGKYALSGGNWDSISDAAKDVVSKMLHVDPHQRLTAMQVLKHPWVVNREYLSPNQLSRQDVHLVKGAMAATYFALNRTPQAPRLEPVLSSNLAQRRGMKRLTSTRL
Chain of SGK2 (human) (Q9HBY8 whole entry, looked up): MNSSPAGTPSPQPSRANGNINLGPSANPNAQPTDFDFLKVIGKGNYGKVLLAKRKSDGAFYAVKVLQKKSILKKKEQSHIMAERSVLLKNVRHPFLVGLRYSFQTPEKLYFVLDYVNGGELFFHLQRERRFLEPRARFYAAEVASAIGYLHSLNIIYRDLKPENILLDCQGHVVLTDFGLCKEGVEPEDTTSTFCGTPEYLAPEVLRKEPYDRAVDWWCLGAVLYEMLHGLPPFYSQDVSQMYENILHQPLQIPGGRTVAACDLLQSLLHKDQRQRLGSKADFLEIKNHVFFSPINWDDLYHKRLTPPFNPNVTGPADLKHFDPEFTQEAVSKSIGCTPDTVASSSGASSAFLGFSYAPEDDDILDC
Chain of STK3 (human) (Q13188 whole entry, looked up): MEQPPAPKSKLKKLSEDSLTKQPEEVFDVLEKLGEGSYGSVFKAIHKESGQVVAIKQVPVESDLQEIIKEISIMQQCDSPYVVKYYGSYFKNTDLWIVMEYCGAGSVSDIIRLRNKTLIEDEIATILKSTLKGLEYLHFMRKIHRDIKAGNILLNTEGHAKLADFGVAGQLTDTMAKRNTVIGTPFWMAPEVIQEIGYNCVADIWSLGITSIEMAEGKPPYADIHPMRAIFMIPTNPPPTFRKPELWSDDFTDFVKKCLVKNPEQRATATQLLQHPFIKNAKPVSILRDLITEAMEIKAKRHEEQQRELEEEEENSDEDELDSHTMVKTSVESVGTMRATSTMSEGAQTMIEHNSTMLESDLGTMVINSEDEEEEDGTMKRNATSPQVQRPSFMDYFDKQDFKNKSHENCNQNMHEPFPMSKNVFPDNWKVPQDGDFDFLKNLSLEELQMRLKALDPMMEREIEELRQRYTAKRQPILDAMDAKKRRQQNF

## O=C1Nc2ccc(Cl)cc2/C1=C/c1cc(Cl)c(O)c(Cl)c1
CSNK2A1 (human)
  residual activity: 26.5%
FGFR2 (human)
  residual activity: 92%
HIPK1 (human)
  residual activity: 102%
PLK1 (human)
  residual activity: 99.8%
SRC (human)
  residual activity: 96.2%
IRAK4 (human)
  residual activity: 101%
TLK2 (human)
  residual activity: 105%
GSK3B (human)
  residual activity: 80.8%
MARK2 (human)
  residual activity: 79.7%
PNCK (human)
  residual activity: 94.2%
MAP3K8 (human)
  residual activity: 93.1%
DAPK3 (human)
  residual activity: 82.3%
EPHB4 (human)
  residual activity: 100%
CSK (human)
  residual activity: 85%
RPS6KA4 KD2 (human)
  residual activity: 98%
STK10 (human)
  residual activity: 77.1%
PRKG1 (human)
  residual activity: 102% and 96.8%
FGFR4 (human)
  residual activity: 98%
MST1R (human)
  residual activity: 94.8%
DYRK2 (human)
  residual activity: 94%
FER (human)
  residual activity: 92.1%
BMX (human)
  residual activity: 94.8%
RPS6KA2 KD1 KD2 (human)
  residual activity: 71.9%
GRK4 (human)
  residual activity: 108%
STK3 (human)
  residual activity: 31.6%
ULK3 (human)
  residual activity: 92.2%
MLTK (human)
  residual activity: 77.4%
LYN (human)
  residual activity: 81.6% and 87.5%
BTK (human)
  residual activity: 92.1%
GRK7 (human)
  residual activity: 97.3%
SGK2 (human)
  residual activity: 89.2%
CDK6 CCND3 (human)
  residual activity: 94.1%
MAPK12 (human)
  residual activity: 90.5%
PKN1 (human)
  residual activity: 93%
TYRO3 (human)
  residual activity: 94.9%
JAK3 JH1 JH2 (human)
  residual activity: 100%
EPHA5 (human)
  residual activity: 99.4%
DMPK (human)
  residual activity: 112%
MYLK (human)
  residual activity: 62.3%
NEK3 (human)
  residual activity: 94%
AURKA (human)
  residual activity: 64.2%
CHEK2 (human)
  residual activity: 70.2%

## CCCC(=O)Oc1ccc2[nH]c(C(=O)c3cc4ccccc4[nH]3)cc2c1
CSNK2A1 (human)
  residual activity: 99.8%
FGFR2 (human)
  residual activity: 100%
HIPK1 (human)
  residual activity: 101%
PLK1 (human)
  residual activity: 101%
SRC (human)
  residual activity: 97%
IRAK4 (human)
  residual activity: 82.7%
TLK2 (human)
  residual activity: 97.1%
GSK3B (human)
  residual activity: 94%
MARK2 (human)
  residual activity: 83.1%
PNCK (human)
  residual activity: 99.4%
MAP3K8 (human)
  residual activity: 97.6%
DAPK3 (human)
  residual activity: 88.5%
EPHB4 (human)
  residual activity: 101%
CSK (human)
  residual activity: 83.5%
RPS6KA4 KD2 (human)
  residual activity: 99.1%
STK10 (human)
  residual activity: 94.3%
PRKG1 (human)
  residual activity: 104% and 95.1%
FGFR4 (human)
  residual activity: 90.9%
MST1R (human)
  residual activity: 103%
DYRK2 (human)
  residual activity: 91.8%
FER (human)
  residual activity: 101%
BMX (human)
  residual activity: 97.4%
RPS6KA2 KD1 KD2 (human)
  residual activity: 85%
GRK4 (human)
  residual activity: 93.7%
STK3 (human)
  residual activity: 87%
ULK3 (human)
  residual activity: 89.5%
MLTK (human)
  residual activity: 104%
LYN (human)
  residual activity: 103% and 98.7%
BTK (human)
  residual activity: 88.2%
GRK7 (human)
  residual activity: 105%
SGK2 (human)
  residual activity: 99.4%
CDK6 CCND3 (human)
  residual activity: 92.5%
MAPK12 (human)
  residual activity: 93.7%
PKN1 (human)
  residual activity: 94.6%
TYRO3 (human)
  residual activity: 101%
JAK3 JH1 JH2 (human)
  residual activity: 95.6%
EPHA5 (human)
  residual activity: 97.7%
DMPK (human)
  residual activity: 94.4%
MYLK (human)
  residual activity: 102%
NEK3 (human)
  residual activity: 95.5%
AURKA (human)
  residual activity: 94.6%
CHEK2 (human)
  residual activity: 99%

## c1ccc(-c2n[nH]cc2-c2ccnc3ccccc23)nc1
CSNK2A1 (human)
  residual activity: 96.3%
FGFR2 (human)
  residual activity: 110%
HIPK1 (human)
  residual activity: 99.9%
PLK1 (human)
  residual activity: 102%
SRC (human)
  residual activity: 94.7%
IRAK4 (human)
  residual activity: 87.7%
TLK2 (human)
  residual activity: 98.6%
GSK3B (human)
  residual activity: 95.2%
MARK2 (human)
  residual activity: 102%
PNCK (human)
  residual activity: 98.3%
MAP3K8 (human)
  residual activity: 91.1%
DAPK3 (human)
  residual activity: 101%
EPHB4 (human)
  residual activity: 89.1%
CSK (human)
  residual activity: 102%
RPS6KA4 KD2 (human)
  residual activity: 87.2%
STK10 (human)
  residual activity: 90.1%
PRKG1 (human)
  residual activity: 86% and 92.7%
FGFR4 (human)
  residual activity: 80.6%
MST1R (human)
  residual activity: 99.9%
DYRK2 (human)
  residual activity: 113%
FER (human)
  residual activity: 86%
BMX (human)
  residual activity: 89.2%
RPS6KA2 KD1 KD2 (human)
  residual activity: 96.3%
GRK4 (human)
  residual activity: 94.3%
STK3 (human)
  residual activity: 102%
ULK3 (human)
  residual activity: 85.3%
MLTK (human)
  residual activity: 78%
LYN (human)
  residual activity: 100% and 87.8%
BTK (human)
  residual activity: 104%
GRK7 (human)
  residual activity: 102%
SGK2 (human)
  residual activity: 101%
CDK6 CCND3 (human)
  residual activity: 98.2%
MAPK12 (human)
  residual activity: 106%
PKN1 (human)
  residual activity: 100%
TYRO3 (human)
  residual activity: 124%
JAK3 JH1 JH2 (human)
  residual activity: 92.7%
EPHA5 (human)
  residual activity: 94.9%
DMPK (human)
  residual activity: 106%
MYLK (human)
  residual activity: 105%
NEK3 (human)
  residual activity: 90.2%
AURKA (human)
  residual activity: 95.4%
CHEK2 (human)
  residual activity: 96.6%
